Data set [1] in a line: MTS cytotoxicity assay in A549 cells. To be noted: human, A549 cells (human lung carcinoma). Type of data set: cell-based, human. The method, then: (§1) An MTS assay was performed to determine the cytotoxicity concentration 50% (CC50) of cladoniamide A (CA) in human A549 cells, a cell line from human lung carcinoma. Various concentrations of CA were added to cultured A549 cells and incubated (37° C., 5% CO2) for 48 h. Cell viability was then measured by an MTS assay kit (CellTiter 96™ Aqueous One Solution cell proliferation assay, Promega) according to the manufacturer's instructions. Curve fitting was performed in Igor Pro (WaveMetrics) using a hyperbolic fit algorithm (FIG. 1). The CC50 of CA in A549 cells was determined to be 54±5 μM. An MTS assay was also performed to determine the CC50 of CA in human U87 MG cells, a cell line from human brain. Various concentrations of CA were added to cultured U87 MG cells and incubated (37° C., 5% CO2) for 48 h. Cell viability was then measured by an MTS assay kit (CellTiter 96 Aqueous One Solution cell proliferation assay, Promega) according to the manufacturer's instructions. Curve fitting was performed in Igor Pro (WaveMetrics) using a hyperbolic fit algorithm (FIG. 2).
On the technique in general: Formazan colour is commonly taken as a measure of viable cells.

Data set [2] is described as follows: MTS cytotoxicity assay in U87 MG cells. In kind it is cell-based. As to conditions: human, U87 MG cells (human brain). The method, then: as §1
A further data set relates to DENV-3. In words: DENV-3 intracellular dsRNA (Cellomics) in A549 cells. Type of data set: cell-based, dengue virus. The method, then:
Error bars represent SD among 3 biological replicates. Cultured A549 cells were treated with the indicated concentrations of CA (1=Mock, 2=0 M, 3=1 μM, 4=5 M, 5=10 M, 6=20 µM) or PF-429242 (7=15 M) for 1 h before being washed with PBS and infected with DENV-2, DENV-3, or DENV-4 at MOI 1.0 for 48 h. Cells were labeled for viral dsRNA with […] then imaged and quantified using the Cellomics ArrayScan™ VTI High Content Screening system.
Viruses. ZIKV: ZIKV strain PRVABC59 (Puerto Rico/2015) (ATCC #VR-1843) was used in these studies, specifically three separate stocks generated in Vero E6 cells with titres of 1.35×10^8 pfu/mL, 1.0×10^7 pfu/mL, and 2.9×10^6 pfu/mL respectively. DENV strains: DENV-2 strain NGC, DENV-3 strain H-87, and DENV-4 strain H-241 were kindly provided by National Microbiology Laboratory, Winnipeg, MB, Canada.
A549 cells were seeded onto Corning tissue culture treated 96 well plates and incubated at 37 degrees Celsius and 5% CO2 for 24 h. CA was diluted in MEM complete media to concentrations of 1 μM, 5 μM, 10 μM, 20 μM, including a 0 μM condition. Diluted CA was added to each well and cells were incubated at 37 degrees Celsius and 5% CO2 for 1 h. After 1 h, cells were washed once with PBS to remove CA and were then infected with DENV-2, -3 or -4 at an MOI of 1. […] Labeled 96 well plates were imaged and quantified using the Cellomics ArrayScan VTI. […]

A word on the CC50: it is the concentration that lowers cell viability or growth by half. Low values mean harm at low concentration, high ones better tolerance by the cells. What is called IC50 is the point on the concentration scale where inhibition reaches its midpoint. Consider `COc1c2n(c3ccccc13)[C@]1(O)C(=O)N(C)C(=O)[C@]1(O)c1c-2[nH]c2ccc(Cl)cc12` [CA, (11S,15R)-7-chloro-11,15-dihydroxy-23-methoxy-13-methyl-3,13,16-triazahexacyclo[14.7.0.0^2,10.0^4,9.0^11,15.0^17,22]tricosa-1(23),2(10),4(9),5,7,17,19,21-octaene-12,14-dione], for which the CC50 at 48 h amounted to 54 ± 5 µM in data set [1] and 42 ± 12 µM in data set [2]. The “activity against Dengue virus 3 in vitro” value in the data set with DENV-3 (1-20 μM, FIG. 8 middle plots) was “good activity”. The compound further came in with an IC50 with DENV-3 (Dengue virus, DENV3, DENV-3, intracellular dsRNA (Cellomics)) of 1.5 µM.

The values are drawn from patent US12643899B2, “Antiviral agents, uses thereof and methods for their preparation” (The University of British Columbia, priority 2020, dated 2026).
